Experimental data as given in patent US20210369677A1, “SMALL MOLECULE ACTIVATORS OF POLYCYSTIN-2 (PKD2) AND USES THEREOF” (Northwestern University, priority 2020, published 2021).

Test system: polycystin-2L1
Format: cell-based
Conditions: for Effect of extracellular reducing agents on polycystin-2L1 current: WT polycystin-2L1
Procedure: Electrophysiology. Ciliary ion currents were recorded using borosilicate glass electrodes polished to resistances of 14-22 MΩ using the cilium patch method previously described^32. Whole cell electrodes used to measure poly cystin-2L1 currents were fire polished to 1.5-4 MΩ resistances. Unless otherwise stated, whole cilia ionic currents were recorded in symmetrical [Na^+]. The pipette standard internal solution contained (in mM): 90 NaMES, 10 NaCl, 10 HEPES, 10 Na4-BAPTA (Glycine, N, N′-[1,2-ethanediylbis(oxy-2,1-phenylene)]bis[N-(carboxymethyl)]-,tetrasodium); pH was adjusted to 7.3 using NaOH. Standard bath solution contained 140 NaCl, 10 HEPES, 1.8 CaCl2); pH 7.4. All solutions were osmotically balanced to 295 (±6) mOsm with mannitol. Extracellular solutions containing TCEP and GSH were used within six hours of formulation. Data were collected using an Axopatch 200B patch clamp amplifier, Digidata 1440A, and pClamp 10 software. Whole-cilium and excised patch currents were digitized at 25 kHz and low-pass filtered at 10 kHz. In the whole cilium configuration, the holding potential was −60 mV and then depolarized using a 400 ms voltage ramp from −100 mV to 100 mV. The whole cell recordings of polycystin-2L1 currents were either activated by the same ramp protocol or by 100 ms depolarizations to 100 mV from a −100 mV holding potential. External conditions were controlled using a Warner Perfusion Fast-Step (SF-77B) system in which the patched cilia and electrode were held in the perfusate stream. Data were analyzed by Igor Pro 7.00 (Wavemetrics, Lake Oswego, Oreg.). The polycystin-2 open probability and the polycystin-2L1 tail current-voltage relationships were fit to a Boltzmann function, f(x)=1/(1+exp[V−V1/2]/k) to estimate voltage of half-maximal activation of current (V1/2).

SMILES	Effect of extracellular reducing agents on polycystin-2L1 current	Block of polycystin-2L1 currents by trivalent ions (10 μM, plasma membrane of HEK cells)
N[C@@H](CCC(=O)N[C@@H](CS)C(=O)NCC(=O)O)C(=O)O [GSH, reduced glutathione]	near complete loss of current	
O=C(O)CCP(CCC(=O)O)CCC(=O)O [TCEP, tris-2-carboxyethyl phosphine]	near complete loss of current	
[Gd] [gadolinium]		blocked
